Laboratory results from patent US20140088144A1, “INHIBITING MICROBIAL INFECTIONS” (THE UNIVERSITY OF KANSAS, priority 2012, published 2014).

Experiments:
rrsA = assay: Shigella gene expression qRT-PCR, internal control rrsA; type: cell-based, S. flexneri; conditions: for Average ΔΔCt / Ct / RQ (2^−ΔΔCt) / ΔΔCt^1 (normalized to gapA): rrsA, example data
Procedure: Real-time quantitative reverse transcription PCR (qRT-PCR) was performed to test the effects of SE-1 on the expression of the VirF regulated genes virB, icsA, icsB and ipaB. The gapA and rrsA transcripts were used as internal controls. These are constitutively expressed Shigella genes commonly used to normalize mRNA levels. S. flexneri strain SME4331, which carries a null mutation in ipgD (ipgD), was grown at 30° C. overnight in TSB with ampicillin, diluted into the same medium to an OD600 of ˜0.1, and 1 ml aliquots further grown at 30° C. (DMSO only) or at 37° C. (SE-1 at 20 or 40 μM, or DMSO only, all 0.3% DMSO). Cells were grown to an OD600 of 1.0 (˜2.5 h) and RNA was isolated using an RNeasy MiniElute Cleanup Kit (Qiagen, Germantown, Md.), with DNA contamination eliminated using a Turbo DNase Kit (Ambion, Austin, Tex.). Complementary DNA (cDNA) was synthesized by random priming using a cDNA Reverse Transcription Kit (Applied Biosystems, Foster City, Calif.). Primers were tested for PCR specificity using genomic DNA template to ensure a single amplicon of the expected size for each primer pair, and validated using 5-fold dilutions of cDNA (2000 to 0.0256 ng) to ensure a linear plot of cycle threshold (Ct) versus cDNA concentration. Validated primer sets were used to test mRNA profiles in reactions that contained 10 ng of cDNA, 10 μl of SYBR green master mix (Applied Biosystems), specific primers (0.5 μM each) and water to a final volume of 20 μl, using a Step One Plus Real-Time PCR System (Applied Biosystems). The data was analyzed using the 2^−ΔΔCt method, and also by Applied Biosystems real-time analysis software. […] In brief, ΔΔCt values [ΔΔCt=(Ct,Target−Ct,Internal Control)SE-1−(Ct,Target−Ct,Internal Control)no SE-1] were separately obtained for each sample relative to two internal controls, gapA and rrsA. The ΔΔCt values relative to the two internal controls for each sample were averaged and then used to calculate the relative expression levels (2^−ΔΔCt). As a control, we also normalized each internal control to the other internal control. Control reactions used templates generated without reverse transcriptase to ensure low genomic DNA contamination. To ensure that products were not likely to be due to primer dimer artifacts, additional control samples were performed in which reaction mixtures contained primers alone (no template).

GB1^b-RhaR = molecular target: T1, GB1^b-RhaR (Escherichia coli, UniProt P09378); assay: EMSA in vitro DNA binding by GB1^b-RhaR; type: biochemical, E. coli
T1 construct: GB1basic (N); made in house; host or cells: E. coli ArcticExpress(DE3), pET21-derived plasmid
T1 sequence (P09378 whole entry): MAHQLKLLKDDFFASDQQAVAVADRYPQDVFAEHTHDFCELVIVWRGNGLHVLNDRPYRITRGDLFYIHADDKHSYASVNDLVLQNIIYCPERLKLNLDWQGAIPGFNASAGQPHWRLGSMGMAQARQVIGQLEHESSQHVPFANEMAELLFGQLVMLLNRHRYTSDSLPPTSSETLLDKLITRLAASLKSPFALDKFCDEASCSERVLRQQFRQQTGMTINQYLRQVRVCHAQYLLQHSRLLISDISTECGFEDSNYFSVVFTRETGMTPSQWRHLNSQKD
Source text: All proteins for this study were expressed in E. coli. Untagged CRP was purified by Ni^2+-affinity chromatography as described. Lad protein was purified by ammonium sulfate precipitation and phosphocellulose column chromatography as described. RhaS-GB1^201b and GB1^b-RhaR were purified by Ni^2+-affinity chromatography. Briefly, plasmids derived from pET21 and expressing RhaS-GB1^201b and GB1^b-RhaR were transformed into competent cells of strains Acella™ (MoBiTec, Gottingen, Germany) or ArcticExpress(DE3) (Agilent Technologies, Santa Clara Calif.), respectively. The cells were grown in 1 liter TY plus ampicillin and rhamnose. Gentamycin was also added for GB1^b-RhaR. The cells were grown to OD600 of 0.5, transferred to a 15° C. shaker, 0.1 mM IPTG was added, and then incubated overnight. Cells were harvested by centrifugation and then resuspended in 30 mL of cold binding buffer (20 mM Tris, 500 mM NaCl, 5 mM imidazole, pH 7.9) plus L-rhamnose. Cells were lysed by three cycles of freeze thaw [with addition of lysozyme (0.4 mg/mL), tris(2-carboxyethyl)phosphine (TCEP, 1 mM) and phenylmethylsulfonyl fluoride (PMSF, 1 mM), at −80° C.] followed by sonication, and then centrifuged to remove cell debris. The supernatant was applied using an AKTAexplorer FPLC (GE Healthcare) to a 5 mL HiTrap Chelating HP column (GE Healthcare) that had been charged with 50 mM NiSO4, and equilibrated with 15 mL H2O and then 15 mL binding buffer. After loading, the column was washed with 25 mL binding buffer, then 25 mL wash buffer (binding buffer, but with 60 mM imidazole) plus L-rhamnose. A 10 mL gradient of binding buffer with 60 mM to 250 mM imidazole from was run and then 15 mL of elution buffer (binding buffer, but with 250 mM imidazole). […]
IRD700- and DY682-labeled oligos were from Eurofins MWG Operon. […] EMSA gels were imaged using an Odyssey infrared imager (LI-COR, Lincoln, Nebr.), and quantified using the Odyssey software, version 3.0.30. […] Inhibition values were calculated and graphs were drawn as for in vivo dose-response experiments.

CCCCN1C=C(c2ccc3ccccc3n2)C(C[N+](=O)[O-])c2ccccc21 (stereo not drawn) [Compound 1, 1-butyl-4-(nitromethyl)-3-quinolin-2-yl-4H-quinoline]
expression of control gene rrsA (rrsA; 40 μM SE-1, normalized to gapA): no decrease
Average ΔΔCt (rrsA; SE-1 20 μM): −1.0
Ct (rrsA; SE-1 20 μM): 18.55
RQ (2^−ΔΔCt) (rrsA; SE-1 20 μM): 2
ΔΔCt^1 (normalized to gapA) (rrsA; SE-1 20 μM): −1.0
Average ΔΔCt (rrsA; SE-1 40 μM): 0.69
Ct (rrsA; SE-1 40 μM): 18.29
RQ (2^−ΔΔCt) (rrsA; SE-1 40 μM): 1.62
ΔΔCt^1 (normalized to gapA) (rrsA; SE-1 40 μM): 0.69
IC50 (GB1^b-RhaR): ~140 µM
concentration for 50% inhibition of GB1^b-RhaR relative to RhaS-GB1^201b (GB1^b-RhaR): two-fold higher
inhibition of GB1^b-RhaR binding to DNA (GB1^b-RhaR): fully inhibit
